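Five concentrations, 48 hours, 96-well plates. GI50 marks 50% less growth.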 Active and inactive are the calls of the source. No stated cut-off is given here; in the data, active = GI50 up to about 1.1 µM and inactive = higher.
Legend:
Experiment in all cases: NCI anticancer screen, dose series, 48 h
HOP-62 = system: HOP-62
KM12 = system: KM12
Malme-3M = system: Malme-3M
OVCAR-5 = system: OVCAR-5
NCI-H522 = system: NCI-H522
SF-295 = system: SF-295
UACC-257 = system: UACC-257
HCT-15 = system: HCT-15
SN12C = system: SN12C
SNB-75 = system: SNB-75
SNB-19 = system: SNB-19
COLO 205 = system: COLO 205
A549 = system: A549
EKVX = system: EKVX
NCI-H460 = system: NCI-H460
SF-539 = system: SF-539
SK-MEL-5 = system: SK-MEL-5
OVCAR-4 = system: OVCAR-4
RXF 393 = system: RXF 393

Structure (SMILES)	GI50 (HOP-62)	GI50 (KM12)	GI50 (Malme-3M)	GI50 (OVCAR-5)	GI50 (NCI-H522)	GI50 (SF-295)	GI50 (UACC-257)	GI50 (HCT-15) [µM]	GI50 (SN12C)	GI50 (SNB-75)	GI50 (SNB-19)	GI50 (COLO 205)	GI50 (A549)	GI50 (EKVX)	GI50 (NCI-H460)	GI50 (SF-539)	GI50 (SK-MEL-5)	GI50 (OVCAR-4)	GI50 (RXF 393)
O=C(O)COc1ccccc1C(=O)Nc1ccccc1	> 100 µM (inactive)	> 100 µM (inactive)	> 100 µM (inactive)	> 100 µM (inactive)	> 100 µM (inactive)	> 100 µM (inactive)	> 100 µM (inactive)	> 100	> 100 µM (inactive)	77.8 µM (inactive)	> 100 µM (inactive)	> 100 µM (inactive)	> 100 µM (inactive)	> 100 µM (inactive)	> 100 µM (inactive)	> 100 µM (inactive)	> 100 µM (inactive)	> 100 µM (inactive)	–
CC(C)C(N)C(=O)NC(CCC(=O)NCCCCC(N)C(=O)NCCCNc1ccc([N+](=O)[O-])c2[nH]c3ccccc3c(=O)c12)C(N)=O (centres undefined)	92.3 µM (inactive)	> 100 µM (inactive)	–	> 100 µM (inactive)	–	55.7 µM (inactive)	> 100 µM (inactive)	41.2	–	48.9 µM (inactive)	35.2 µM (inactive)	68.9 µM (inactive)	27.3 µM (inactive)	> 100 µM (inactive)	12.5 µM (inactive)	–	> 100 µM (inactive)	20.6 µM (inactive)	11 µM (inactive)
CCc1ccccc1NC(=O)CCc1n[nH]c(=S)o1	> 100 µM (inactive)	> 100 µM (inactive)	> 100 µM (inactive)	> 100 µM (inactive)	–	> 100 µM (inactive)	> 100 µM (inactive)	19.3	> 100 µM (inactive)	> 100 µM (inactive)	> 100 µM (inactive)	> 100 µM (inactive)	> 100 µM (inactive)	> 100 µM (inactive)	> 100 µM (inactive)	76.2 µM (inactive)	> 100 µM (inactive)	> 100 µM (inactive)	–
C#Cc1c(C)c(/C=C/C(C)=C/C=C/C(C)=C/C(=O)OC)n(C)c1C	> 100 µM (inactive)	> 100 µM (inactive)	> 100 µM (inactive)	> 100 µM (inactive)	> 100 µM (inactive)	> 100 µM (inactive)	> 100 µM (inactive)	> 100	–	44.5 µM (inactive)	> 100 µM (inactive)	> 100 µM (inactive)	> 100 µM (inactive)	> 100 µM (inactive)	> 100 µM (inactive)	> 100 µM (inactive)	–	> 100 µM (inactive)	–
CCOC(=O)C1=C(C)N(NC(N)=O)C(C)(O)C12CCOC2=O (centres undefined)	> 100 µM (inactive)	> 100 µM (inactive)	> 100 µM (inactive)	> 100 µM (inactive)	> 100 µM (inactive)	> 100 µM (inactive)	> 100 µM (inactive)	> 100	> 100 µM (inactive)	> 100 µM (inactive)	> 100 µM (inactive)	–	> 100 µM (inactive)	> 100 µM (inactive)	> 100 µM (inactive)	> 100 µM (inactive)	> 100 µM (inactive)	> 100 µM (inactive)	–
O=C(CC(=O)n1nc(-c2ccccc2)c(/N=N/c2ccc(Cl)cc2)c1-c1ccccc1)Nc1ccc(Cl)cc1	> 100 µM (inactive)	48.6 µM (inactive)	> 100 µM (inactive)	> 100 µM (inactive)	> 100 µM (inactive)	> 100 µM (inactive)	> 49.2 µM (inactive)	> 41.7	> 100 µM (inactive)	> 50.5 µM (inactive)	> 100 µM (inactive)	> 46.9 µM (inactive)	> 43.9 µM (inactive)	> 100 µM (inactive)	> 43.4 µM (inactive)	> 100 µM (inactive)	> 100 µM (inactive)	> 100 µM (inactive)	–
CCCCCCCCOC(CO)CO	> 100 µM (inactive)	–	> 100 µM (inactive)	> 100 µM (inactive)	–	> 100 µM (inactive)	> 100 µM (inactive)	> 100	> 100 µM (inactive)	–	> 100 µM (inactive)	> 100 µM (inactive)	> 100 µM (inactive)	–	> 100 µM (inactive)	–	> 100 µM (inactive)	> 100 µM (inactive)	–

Source: ChEMBL document CHEMBL1201862, “PubChem BioAssay data set” (2004)
